Measured values from article PMC9964635, “Bio-Oriented Synthesis and Molecular Docking Studies of 1,2,4-Triazole Based Derivatives as Potential Anti-Cancer Agents against HepG2 Cell Line” (Pharmaceuticals, 2023).
In brackets after ≈: the same amount, converted by molar mass.

Experiments:
[1] = system: HepG2 cell line; assay: MTT assay, cell viability against HepG2; type: cell-based; conditions: Homo sapiens; for inhibition at 3.125 µg/mL / inhibition at 6.25 µg/mL / inhibition at 12.5 µg/mL / inhibition at 25 µg/mL / inhibition at 50 µg/mL / inhibition at 100 µg/mL / inhibition at 200 µg/mL: HepG2; for IC50: HepG2, MTT, 48 h
Description: The anti-hepatocellular activity of afforded N-arylated 1,2,4-triazole coupled acetamides (7a–f) was evaluated via MTT assay and these structural hybrids were screened against a liver cancer HepG2 cell line.
The cell viability of all of the compounds was further evaluated using various concentrations ([…]) to test the dose response and % inhibition relationship as shown in Table 2.
Human HepG2 liver cancer cell lines were cultured by Dulbecco’s modified Eagle’s medium. It is composed of 100 μg/mL streptomycin, 100 units/mL penicillin, and 10% FBS. A humidified atmosphere was provided for incubation at 37 °C with 5% CO2. The anti-hepatocellular therapeutic potential of triazole-based scaffolds was evaluated by dissolving its different concentrations in 0.05% DMSO.
An MTT assay was applied for evaluation of cell viability against the HepG2 cell line. In short, different concentrations of new triazole-based scaffolds were incubated with HepG2 cell lines for 48 h. After incubation, 5 mg/mL of 10 µL MTT solution was added in each plate and they were further incubated at 37 °C for 4 h. The percentage of cell viability was calculated at 490 nm after the addition of 150 μL DMSO into a microplate reader (Thermo Scientific, Waltham, MA, USA).

[2] = no reference given; cited from earlier work
[3] = Hemolytic activity, Triton-X-100 as standard; conditions: relative to Triton-X-100
Source text: Hemolytic activity was investigated by the reported method using Triton-X-100 as a standard. Molecule 7f also presented very low toxicity at 1.19 ± 0.02 relative to reference Triton-X-100. All of the other compounds had moderately good hemolytic activity.
Hemolytic activity was investigated by the reported method using Triton-X-100 as standard.

Molecule | inhibition at 3.125 µg/mL [1] [%] | inhibition at 6.25 µg/mL [1] [%] | inhibition at 12.5 µg/mL [1] [%] | inhibition at 25 µg/mL [1] [%] | inhibition at 50 µg/mL [1] [%] | inhibition at 100 µg/mL [1] [%] | inhibition at 200 µg/mL [1] [%] | IC50 [1] [µg/mL] | melting point [°C] | bioavailability [2] | Hemolytic Activity (Mean% ± S.D) [3] [%] | Hemolytic Activity (Mean% ± S.D) ([3]; listed as Triton X100) [%]
Cc1ccccc1NC(=O)CSc1nnc(C(C)c2ccc(CC(C)C)cc2)n1C (stereo not shown) [Compound 7a, N-(2-Methylphenyl)-2-((5-(1-(4-isobutylphenyl)ethyl)-4-methyl-4H-1,2,4-triazol-3-yl)thio)Acetamide] | 11.6 | 21.4 ± 6.24 | 27.7 ± 6.46 | 64 ± 1.67 | 75.2 ± 5.99 | 88.17 ± 0.26 | 89.4 ± 0.34 | 20.7 (≈ 48.9 µM) | 122 to 124 |  |  | 
Cc1cc(Br)ccc1NC(=O)CSc1nnc(C(C)c2ccc(CC(C)C)cc2)n1C (stereo not shown) [Compound 7b, N-(4-Bromo-2-Mthylphenyl)-2-((5-(1-(4-Isobutylphenyl)Ethyl)-4-Methyl-4H-1,2,4-Triazol-3-yl)Thio)Acetamide] | 10.3 | 24.8 ± 4.62 | 25.2 ± 4.67 | 31.9 ± 0.3 | 88.6 ± 1.11 | 89.4 ± 0.91 | 89.5 ± 0.06 | 33.6 (≈ 66.9 µM) | 122 to 124 |  |  | 
CCc1ccc(NC(=O)CSc2nnc(C(C)c3ccc(CC(C)C)cc3)n2C)cc1 (stereo not shown) [Compound 7c, N-(4-Ethylphenyl)-2-((5-(1-(4-Isobutylphenyl)Ethyl)-4-Methyl-4H-1,2,4-Triazol-3-yl)Thio)Acetamide] | 15.4 ± 2.01 | 17.4 ± 1.32 | 19.1 ± 1.25 | 22.8 ± 0.29 | 73.7 ± 15.5 | 78.8 ± 10.8 | 87.51 ± 0.2 | 39 (≈ 89.3 µM) | 100 to 102 |  |  | 
CC(C)Cc1ccc(C(C)c2nnc(SCC(=O)Nc3ccccc3Cl)n2C)cc1 (stereo not shown) [Compound 7d, N-(2-Chlorophenyl)-2-((5-(1-(4-Isobutylphenyl)Ethyl)-4-Methyl-4H-1,2,4-Triazol-3-yl)Thio)Acetamide] | 14.3 ± 4.27 | 17.3 ± 1.4 | 19.1 ± 17.7 | 19.5 ± 1.44 | 76.7 ± 5.63 | 78.33 ± 0.78 | 87.7 ± 0.18 | 39.7 (≈ 89.5 µM) | 123 to 125 |  |  | 
CC(C)Cc1ccc(C(C)c2nnc(SCC(=O)Nc3ccccc3)n2C)cc1 (stereo not shown) [Compound 7e, N-(Phenyl)-2-((5-(1-(4-Isobutylphenyl)Ethyl)-4-Methyl-4H-1,2,4-Triazol-3-yl)Thio)Acetamide] | 18.6 ± 0.5 | 20.5 ± 7.11 | 21 ± 3.13 | 24 ± 6.12 | 74.2 ± 13.2 | 87.3 ± 2.09 | 88 ± 1.44 | 39.1 (≈ 95.7 µM) | 88 to 90 |  |  | 
Cc1cccc(C)c1NC(=O)CSc1nnc(C(C)c2ccc(CC(C)C)cc2)n1C (stereo not shown) [Compound 7f, N-(2,6-Dimethylphenyl)-2-((5-(1-(4-Isobutylphenyl)Ethyl)-4-Methyl-4H-1,2,4-Triazol-3-yl)Thio)Acetamide] | 8.4 ± 4.54 | 19.6 ± 4.07 | 34 ± 2.47 | 85.9 ± 0.3 | 86.57 ± 0.56 | 87.7 ± 1.34 | 88.36 ± 0.31 | 16.8 (≈ 38.4 µM) | 150 to 152 |  |  | 
CNC(=O)c1cc(Oc2ccc(NC(=O)Nc3ccc(Cl)c(C(F)(F)F)c3)cc2)ccn1 [Sorafenib, reference compound] |  |  |  |  |  |  |  | 5.97 (≈ 12.8 µM) |  | 38–49% |  | 
Triton-X-100 [reference compound] |  |  |  |  |  |  |  |  |  |  | 100 ± 0.0 | 100
